Assay results reported in publication PMC8839448, “Novel Pyridothienopyrimidine Derivatives: Design, Synthesis and Biological Evaluation as Antimicrobial and Anticancer Agents” (Molecules, 2022).
≈ marks a conversion by molar mass, not a printed value.

How the values were obtained:
five bacterial strains = test: Antibacterial MIC, range over the panel; assay type: cell-based
[1] = system: breast cancer (MCF-7) cells; test: Cytotoxicity, MTT assay; assay type: cell-based, human; conditions: Homo sapiens, MCF7, MCF7 cells, read-out: Cytotoxic activity IC50 MCF7
[2] = system: Saccharomycese cerevisiae; test: In vitro antifungal activity, MIC by broth dilution; assay type: cell-based; conditions: Saccharomyces cerevisiae, yeast, read-out: MIC S. cerevisiae
Candida tropicals 750 = test: as above; assay type: cell-based; conditions: yeast, read-out: MIC C. tropicals
Escherichia coli 8739 = test: In vitro antibacterial activity, MIC by broth dilution; assay type: cell-based; conditions: Gram −ve bacteria
Bacillus cereus 33018 = test: as above; assay type: cell-based; conditions: Gram +ve bacteria, read-out: MIC B. cereus
[3] = system: Aspergillus niger EM77 (KF774181); test: In vitro antifungal activity, MIC by broth dilution; assay type: cell-based; conditions: fungi
Aspergillus flavus = test: as above; assay type: cell-based; conditions: fungi
[4] = system: Staphylococcus aureus 25923; test: In vitro antibacterial activity, MIC by broth dilution; assay type: cell-based; conditions: Gram +ve bacteria, read-out: MIC S. aureus
Candida albicans 10231 = test: In vitro antifungal activity, MIC by broth dilution; assay type: cell-based; conditions: yeast, read-out: MIC C. albicans
[5] = system: Salmonella typhimurium 14028; test: In vitro antibacterial activity, MIC by broth dilution; assay type: cell-based; conditions: Salmonella enterica, Gram −ve bacteria, read-out: MIC S. typhimurium
Bacillus subtilis 6633 = test: as above; assay type: cell-based; conditions: Gram +ve bacteria, read-out: MIC B. subtilis
[6] = system: hepatocellular carcinoma (HepG2) cells; test: Cytotoxicity, MTT assay; assay type: cell-based; conditions: Homo sapiens, read-out: Cytotoxic activity IC50 HepG2
[7] = system: all the tested yeasts and fungi strains; test: Antifungal MIC, range over the panel; assay type: cell-based
[8] = Cytotoxicity against normal cells, MTT assay; conditions: human, WISH normal cells
Text: The cytotoxicity was estimated as IC50 in μM for the tested compounds and the reference drug doxorubicin, and are listed in Table 3.

Row | MIC range against the tested yeasts and fungi strains [7] [µg/mL] | SMILES | MIC range against the tested bacterial strains (five bacterial strains) [µg/mL] | melting point [°C] | IC50 [1] [µM] | MIC [2] [µg/mL] | MIC (Candida tropicals 750) [µg/mL] | MIC (Escherichia coli 8739) [µg/mL] | MIC (Bacillus cereus 33018) [µg/mL] | MIC [3] [µg/mL] | MIC (Aspergillus flavus) [µg/mL] | MIC [4] [µg/mL] | MIC (Candida albicans 10231) [µg/mL] | MIC [5] [µg/mL] | MIC (Bacillus subtilis 6633) [µg/mL] | IC50 [6] [µM] | IC50 [8] [µM]
1 |  | Cc1ccc(-c2cc(-c3ccccc3)nc3sc4c(c23)NC2(CCCCC2)NC4=O)cc1 [Compound 6d, 7′-Phenyl-9′-(p-tolyl)-1′H-spiro[cyclohexane-1,2′-pyrido[3′,2′:4,5]thieno[3,2-d]pyrimidin]-4′(3′H)-one] | 8 to 32 | 263 | 21.7 ± 0.7 | 32 (≈ 72.8 µM) | 64 (≈ 146 µM) | 32 (≈ 72.8 µM) | 8 (≈ 18.2 µM) | 16 (≈ 36.4 µM) | 32 (≈ 72.8 µM) | 8 (≈ 18.2 µM) | 64 (≈ 146 µM) | 32 (≈ 72.8 µM) | 32 (≈ 72.8 µM) | 4.45 ± 0.22 | 
2 | 4 to 16 | Cc1cc(C)c2c3c(sc2n1)C(=S)NC1(CCCC1)N3 [Compound 7a, 7′,9′-Dimethyl-1′H-spiro[cyclopentane-1,2′-pyrido[3′,2′:4,5]thieno[3,2-d]pyrimidine]-4′(3′H)-thione] |  |  | 28.1 ± 0.92 | 8 (≈ 26.4 µM) | 16 (≈ 52.7 µM) | 8 (≈ 26.4 µM) | 8 (≈ 26.4 µM) | 16 (≈ 52.7 µM) | 16 (≈ 52.7 µM) | 4 (≈ 13.2 µM) | 16 (≈ 52.7 µM) | 16 (≈ 52.7 µM) | > 128 | 26.1 ± 1.89 | 
3 |  | Cc1ccc(-c2cc(-c3ccccc3)nc3sc4c(c23)NC2(CCCC2)NC4=S)cc1 [Compound 7b, 7′-Phenyl-9′-(p-tolyl)-1′H-spiro[cyclopentane-1,2′-pyrido[3′,2′:4,5]thieno[3,2-d]pyrimidine]-4′(3′H)-thione] | 64 to 128 |  | 41.6 ± 2.2 | 32 (≈ 72.5 µM) | 64 (≈ 145 µM) | 64 (≈ 145 µM) | 64 (≈ 145 µM) | 128 (≈ 290 µM) | 64 (≈ 145 µM) | 64 (≈ 145 µM) | 64 (≈ 145 µM) | 128 (≈ 290 µM) | 64 (≈ 145 µM) | 39.7 ± 1.89 | 
4 | 4 to 16 | Cc1cc(C)c2c3c(sc2n1)C(=S)NC1(CCCCC1)N3 [Compound 7c, 7′,9′-Dimethyl-1′H-spiro[cyclohexane-1,2′-pyrido[3′,2′:4,5]thieno[3,2-d]pyrimidine]-4′(3′H)-thione] |  | 201 | 20.9 ± 0.93 | 8 (≈ 25.2 µM) | 8 (≈ 25.2 µM) | 32 (≈ 101 µM) | 8 (≈ 25.2 µM) | 16 (≈ 50.4 µM) | 4 (≈ 12.6 µM) | 32 (≈ 101 µM) | 16 (≈ 50.4 µM) | 32 (≈ 101 µM) | 32 (≈ 101 µM) | 10.3 ± 0.31 | 
5 |  | Cc1ccc(-c2cc(-c3ccccc3)nc3sc4c(c23)NC2(CCCCC2)NC4=S)cc1 [Compound 7d, 7′-Phenyl-9′-(p-tolyl)-1′H-spiro[cyclohexane-1,2′-pyrido[3′,2′:4,5]thieno[3,2-d]pyrimidine]-4′(3′H)-thione] |  | 178 to 179 | 26.6 ± 1.62 | 32 (≈ 70.2 µM) | 64 (≈ 140 µM) | 32 (≈ 70.2 µM) | 64 (≈ 140 µM) | 64 (≈ 140 µM) | 64 (≈ 140 µM) | 4 (≈ 8.78 µM) | 32 (≈ 70.2 µM) | 32 (≈ 70.2 µM) | 64 (≈ 140 µM) | 23.2 ± 0.35 | 
6 |  | Cc1cc(C)c2c3c(sc2n1)C(SCC(N)=O)=NC1(CCCCC1)N3 [Compound 8a, 2-((7′,9′-Dimethyl-1′H-spiro[cyclohexane-1,2′-pyrido[3′,2′:4,5]thieno[3,2-d]pyrimidin]-4′-yl)sulfanyl)acetamide] | 8 to 32 | 160 to 161 | 20.9 ± 1.46 | 16 (≈ 42.7 µM) | 16 (≈ 42.7 µM) | 32 (≈ 85.4 µM) | 8 (≈ 21.4 µM) | 16 (≈ 42.7 µM) | 16 (≈ 42.7 µM) | 8 (≈ 21.4 µM) | 64 (≈ 171 µM) | 32 (≈ 85.4 µM) | 16 (≈ 42.7 µM) | 6.78 ± 0.73 | 
7 |  | Cc1cc(C)c2c3c(sc2n1)C(SCC1CO1)=NC1(CCCCC1)N3 (centres unmarked) [Compound 9a, 7′,9′-Dimethyl-4′-((oxiran-2-ylmethyl)sulfanyl)-1′H-spiro[cyclohexane-1,2′-pyrido[3′,2′:4,5]thieno[3,2-d]pyrimidine]] | 8 to 32 | 155 | 23.6 ± 1.24 | 32 (≈ 85.7 µM) | 32 (≈ 85.7 µM) | 32 (≈ 85.7 µM) | 8 (≈ 21.4 µM) | 64 (≈ 171 µM) | 16 (≈ 42.8 µM) | 16 (≈ 42.8 µM) | 16 (≈ 42.8 µM) | 16 (≈ 42.8 µM) | 32 (≈ 85.7 µM) | 4.88 ± 0.65 | 
8 |  | COc1cccc2c1C(=O)c1c(O)c3c(c(O)c1C2=O)C[C@@](O)(C(=O)CO)C[C@@H]3O[C@H]1C[C@H](N)[C@H](O)[C@H](C)O1 [Doxorubicin, doxorubicin, reference compound] |  |  | 3.58 ± 0.33 |  |  |  |  |  |  |  |  |  |  | 2.85 ± 0.21 | 432 ± 19.3
